Source: publication PMC9340770 (Journal of Medicinal Chemistry, 2022)

Experiments:
SOS2 = target: T1, SOS2 (Homo sapiens, UniProt Q07890); assay: SOS2 KRAS WT GDP exchange assay; type: biochemical
T1 construct: amino acids 558-1047, expressed in E. coli with a N-terminal HIS-tag MW=59.3 kDa; His (N); purchased Accelagen Inc; host or cells: E. coli
Method: The plates were incubated overnight at 4 °C on a shaker.
Each plate was washed 3x times […]
for 2 hours (protected from light). The secondary antibody solution as removed and each plate […]
was washed with PBST 3x times. […]
length at 3mm and both 800nm and 700nm filters. The GAPDH normalized scan values for each […]
were then calculated with the Graph pad Prism software.
EGFR selectivity was profiled using Reaction Biology’s radiometric HotSpot kinase assay with human EGFR. Compounds were sent as a powder then suspended as a 10 mM DMSO stock […]
starting at 20 μM. Reactions were carried out at 10 μM ATP.
SOS2 KRAS WT GDP Exchange Assay
The final conditions for the Functional SOS2 Assay are as follows: 50 mM HEPES 7.5, 2nM SOS2, 50nM GTP-CY5, 30nM KRAS, 0.5 nM Tb-SA, 5 mM MgCl2, 1 mM TCEP, 0.2 mg/mL BSA, ~1.0% DMSO. Recombinant human SOS2 polypeptide (Accelagen Inc., corresponding to amino acids 558-1047, expressed in E. coli with a N-terminal HIS-tag MW=59.3 kDa) and Cy5-GTP (Jena Bioscience Inc) were added to an exemplary compound (in a DMSO stock solution) at room temperature for 15 minutes. […] 100 percent of control (POC) is determined by using a DMSO control and 0 POC is determined using a concentration of control […]

Rat PK (IV and PO) = type: in vivo, Sprague–Dawley rats
Text: Table 9 PK Parameters for MRTX0902 (32) across Species | column: rat

Dog PK (IV and PO) = type: in vivo, beagle dogs
Text: Table 9 PK Parameters for MRTX0902 (32) across Species | column: dog

AVPR1A = target: T2, AVPR1A (Homo sapiens, UniProt P37288); assay: Safetyscan Calcium Flux; type: cell-based
T2 construct: purchased DiscoverX (Eurofins) Safetyscan Panel

EDNRA = target: T3, EDNRA (Homo sapiens, UniProt P25101); assay: Safetyscan Calcium Flux; type: cell-based
T3 construct: purchased DiscoverX (Eurofins) Safetyscan Panel

ADRB2 = target: T4, ADRB2 (Homo sapiens, UniProt P07550); assay: Safetyscan cAMP; type: cell-based
T4 construct: purchased DiscoverX (Eurofins) Safetyscan Panel

INSR = target: T5, INSR (Homo sapiens, UniProt P06213); assay: Safetyscan Kinases Binding; conditions: read-out: RC50 (IC50) INSR Inhibitor
T5 construct: purchased DiscoverX (Eurofins)

MAOA = target: T6, MAOA (Homo sapiens, UniProt P21397); assay: Safetyscan Enzymatic; type: biochemical; conditions: read-out: RC50 (IC50) MAOA Inhibitor
T6 construct: purchased DiscoverX (Eurofins)

PDE4D2 = target: T7, PDE4D2 (Homo sapiens, UniProt Q08499); assay: Safetyscan Enzymatic; type: biochemical; conditions: read-out: RC50 (IC50) PDE4D2 Inhibitor
T7 construct: purchased DiscoverX (Eurofins)

in vivo = conditions: CD-1, mouse, po, 30 mg/kg

T4 sequence (P07550 whole entry): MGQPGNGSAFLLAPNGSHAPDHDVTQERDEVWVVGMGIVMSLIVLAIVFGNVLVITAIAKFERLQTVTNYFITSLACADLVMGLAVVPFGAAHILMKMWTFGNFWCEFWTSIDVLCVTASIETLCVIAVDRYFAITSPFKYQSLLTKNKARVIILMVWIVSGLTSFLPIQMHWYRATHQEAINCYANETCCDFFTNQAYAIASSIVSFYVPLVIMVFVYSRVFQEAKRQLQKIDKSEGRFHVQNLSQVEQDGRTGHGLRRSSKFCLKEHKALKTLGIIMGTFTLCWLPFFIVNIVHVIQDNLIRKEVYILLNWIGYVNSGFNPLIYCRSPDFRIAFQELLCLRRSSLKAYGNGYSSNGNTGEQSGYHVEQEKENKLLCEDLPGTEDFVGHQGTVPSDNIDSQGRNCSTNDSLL
T2 sequence (P37288 whole entry): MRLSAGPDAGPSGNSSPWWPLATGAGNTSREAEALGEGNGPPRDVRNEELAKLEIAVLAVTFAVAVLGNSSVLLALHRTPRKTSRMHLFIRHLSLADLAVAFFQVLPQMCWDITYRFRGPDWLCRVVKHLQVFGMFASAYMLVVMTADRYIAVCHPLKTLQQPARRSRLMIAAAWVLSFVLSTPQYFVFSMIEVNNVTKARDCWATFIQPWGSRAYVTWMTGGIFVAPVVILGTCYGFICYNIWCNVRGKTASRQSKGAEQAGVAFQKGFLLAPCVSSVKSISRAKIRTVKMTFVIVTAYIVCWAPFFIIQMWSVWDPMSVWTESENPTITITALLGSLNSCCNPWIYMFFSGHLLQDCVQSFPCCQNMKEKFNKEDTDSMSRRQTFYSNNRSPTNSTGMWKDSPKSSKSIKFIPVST
T3 sequence (P25101 21-427): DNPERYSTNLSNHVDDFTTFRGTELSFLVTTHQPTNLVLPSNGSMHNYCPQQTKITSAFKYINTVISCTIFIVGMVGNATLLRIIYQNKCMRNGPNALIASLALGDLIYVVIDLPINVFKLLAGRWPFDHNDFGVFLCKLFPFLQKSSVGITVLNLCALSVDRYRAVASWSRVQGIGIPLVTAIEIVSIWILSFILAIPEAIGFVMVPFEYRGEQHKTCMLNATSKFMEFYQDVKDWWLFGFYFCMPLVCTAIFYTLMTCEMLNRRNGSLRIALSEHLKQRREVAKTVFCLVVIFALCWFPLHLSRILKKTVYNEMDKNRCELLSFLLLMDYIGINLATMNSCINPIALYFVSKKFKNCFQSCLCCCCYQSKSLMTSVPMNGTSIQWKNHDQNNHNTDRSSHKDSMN
T5 sequence (P06213 28-1382): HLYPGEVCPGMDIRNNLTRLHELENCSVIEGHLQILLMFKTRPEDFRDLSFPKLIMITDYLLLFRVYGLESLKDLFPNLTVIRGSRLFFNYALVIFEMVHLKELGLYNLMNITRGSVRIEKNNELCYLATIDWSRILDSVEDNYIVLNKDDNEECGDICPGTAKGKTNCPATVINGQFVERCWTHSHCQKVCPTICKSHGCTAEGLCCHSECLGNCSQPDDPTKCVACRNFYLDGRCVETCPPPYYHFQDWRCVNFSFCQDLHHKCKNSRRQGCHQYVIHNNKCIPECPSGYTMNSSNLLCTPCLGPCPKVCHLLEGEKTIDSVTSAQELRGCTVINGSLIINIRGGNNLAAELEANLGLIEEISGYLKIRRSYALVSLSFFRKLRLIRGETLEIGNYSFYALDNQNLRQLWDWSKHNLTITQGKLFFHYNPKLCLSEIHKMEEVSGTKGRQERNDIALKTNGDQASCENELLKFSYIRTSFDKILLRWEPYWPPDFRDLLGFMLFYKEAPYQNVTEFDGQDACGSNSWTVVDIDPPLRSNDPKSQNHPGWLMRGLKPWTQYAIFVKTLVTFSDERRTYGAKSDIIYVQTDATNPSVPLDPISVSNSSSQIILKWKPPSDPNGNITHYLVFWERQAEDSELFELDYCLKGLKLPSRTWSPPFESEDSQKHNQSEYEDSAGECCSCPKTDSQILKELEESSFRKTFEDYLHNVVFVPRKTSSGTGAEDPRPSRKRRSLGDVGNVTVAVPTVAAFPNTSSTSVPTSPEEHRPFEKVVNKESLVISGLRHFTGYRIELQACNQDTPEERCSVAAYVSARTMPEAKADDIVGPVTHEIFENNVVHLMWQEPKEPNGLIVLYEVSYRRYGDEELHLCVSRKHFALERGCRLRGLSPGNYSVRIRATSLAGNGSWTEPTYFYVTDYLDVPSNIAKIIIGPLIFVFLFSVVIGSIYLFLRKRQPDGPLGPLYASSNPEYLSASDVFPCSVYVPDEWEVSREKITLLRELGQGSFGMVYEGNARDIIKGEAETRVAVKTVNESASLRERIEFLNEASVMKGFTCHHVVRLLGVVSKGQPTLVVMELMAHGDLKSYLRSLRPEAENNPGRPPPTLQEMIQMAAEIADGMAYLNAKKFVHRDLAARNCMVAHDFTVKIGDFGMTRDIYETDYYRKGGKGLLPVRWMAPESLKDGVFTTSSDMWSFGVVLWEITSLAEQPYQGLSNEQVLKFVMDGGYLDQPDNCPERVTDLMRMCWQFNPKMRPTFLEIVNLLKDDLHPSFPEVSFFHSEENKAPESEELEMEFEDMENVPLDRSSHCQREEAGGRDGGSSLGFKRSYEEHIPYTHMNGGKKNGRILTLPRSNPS
T6 sequence (P21397 whole entry): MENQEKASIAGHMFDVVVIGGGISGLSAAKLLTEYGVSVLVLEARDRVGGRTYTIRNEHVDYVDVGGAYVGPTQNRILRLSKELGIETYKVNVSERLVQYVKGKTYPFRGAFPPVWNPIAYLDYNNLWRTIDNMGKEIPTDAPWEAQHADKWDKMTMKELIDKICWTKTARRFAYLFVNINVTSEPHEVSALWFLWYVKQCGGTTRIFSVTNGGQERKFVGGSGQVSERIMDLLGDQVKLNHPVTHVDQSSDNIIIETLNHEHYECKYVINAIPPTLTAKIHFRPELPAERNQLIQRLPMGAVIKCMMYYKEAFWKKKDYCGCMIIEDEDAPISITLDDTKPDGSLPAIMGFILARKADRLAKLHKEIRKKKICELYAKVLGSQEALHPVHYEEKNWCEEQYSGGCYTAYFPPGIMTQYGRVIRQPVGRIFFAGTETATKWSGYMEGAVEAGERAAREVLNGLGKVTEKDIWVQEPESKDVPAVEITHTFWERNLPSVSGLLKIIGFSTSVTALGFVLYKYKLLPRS
T7 sequence (Q08499 303-809 limits assumed): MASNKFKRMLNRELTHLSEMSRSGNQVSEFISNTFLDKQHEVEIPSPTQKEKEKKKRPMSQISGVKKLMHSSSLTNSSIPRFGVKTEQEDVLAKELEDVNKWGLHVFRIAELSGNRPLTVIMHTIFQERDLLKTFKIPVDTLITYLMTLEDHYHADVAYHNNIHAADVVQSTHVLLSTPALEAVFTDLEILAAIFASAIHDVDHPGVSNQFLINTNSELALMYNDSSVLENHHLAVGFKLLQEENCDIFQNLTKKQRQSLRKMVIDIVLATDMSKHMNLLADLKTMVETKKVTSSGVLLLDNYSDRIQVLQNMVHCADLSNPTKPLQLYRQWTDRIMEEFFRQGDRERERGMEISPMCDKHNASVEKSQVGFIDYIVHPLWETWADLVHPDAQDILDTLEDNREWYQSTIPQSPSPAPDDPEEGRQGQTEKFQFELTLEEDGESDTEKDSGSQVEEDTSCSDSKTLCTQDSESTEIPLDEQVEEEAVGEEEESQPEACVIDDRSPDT
T1 sequence (Q07890 558-1047): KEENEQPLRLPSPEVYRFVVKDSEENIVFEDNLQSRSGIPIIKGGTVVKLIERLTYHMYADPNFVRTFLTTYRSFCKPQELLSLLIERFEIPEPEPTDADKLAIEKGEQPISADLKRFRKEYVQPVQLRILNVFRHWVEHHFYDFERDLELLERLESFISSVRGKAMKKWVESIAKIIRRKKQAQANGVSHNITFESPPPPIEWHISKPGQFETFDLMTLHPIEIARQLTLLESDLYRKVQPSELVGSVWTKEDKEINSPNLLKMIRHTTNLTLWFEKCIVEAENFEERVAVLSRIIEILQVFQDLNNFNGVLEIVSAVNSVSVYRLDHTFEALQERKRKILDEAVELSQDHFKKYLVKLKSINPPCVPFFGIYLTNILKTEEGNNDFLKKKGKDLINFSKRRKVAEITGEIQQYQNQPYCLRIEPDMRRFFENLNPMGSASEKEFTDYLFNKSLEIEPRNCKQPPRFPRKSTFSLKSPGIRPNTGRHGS

Cc1c(C#N)cccc1[C@@H](C)Nc1nnc(C)c2cnc(N3CCOCC3)cc12 [Compound 32, (R)-2-Methyl-3-(1-((4-methyl-7-morpholinopyrido[3,4-d]pyridazin-1-yl)amino)ethyl)benzonitrile]
IC50 (SOS2): > 10 µM | IV t1/2 (Rat PK (IV and PO); IV 1 mg/kg): 37.2 min | Vd,ss (Rat PK (IV and PO); IV 1 mg/kg): 0.28 L/kg | clearance (Rat PK (IV and PO); Sprague-Dawley, in vivo, IV 1 mg/kg): 14.6 mL/min/kg | bioavailability (Rat PK (IV and PO); Sprague-Dawley, in vivo, IV/PO 1/10 mg/kg, PO suspension in 0.5% MC (4000 cps)/0.2% Tween80 in water): 83% | F (Dog PK (IV and PO); IV/PO 2/10 mg/kg, PO suspension in 0.5% MC (4000 cps)/0.2% Tween80 in water): 38% | clearance (Dog PK (IV and PO); beagle, in vivo, IV 2 mg/kg): 7.6 mL/min/kg | half-life (Dog PK (IV and PO); beagle, in vivo, IV 2 mg/kg, read-out: IV t1/2 (converted)): 51.6 min | Vd (Dog PK (IV and PO); beagle, in vivo, IV 2 mg/kg, read-out: Vd,ss): 0.48 L/kg | EC50 (AVPR1A; agonist mode, read-out: RC50 (EC50) AVPR1A Agonist): > 10 µM | IC50 (AVPR1A; antagonist mode, read-out: RC50 (IC50) AVPR1A Antagonist): > 10 µM | EC50 (EDNRA; agonist mode, read-out: RC50 (EC50) EDNRA Agonist): > 10 µM | IC50 (EDNRA; antagonist mode, read-out: RC50 (IC50) EDNRA Antagonist): > 10 µM | EC50 (ADRB2; agonist mode, read-out: RC50 (EC50) ADRB2 Agonist): > 10 µM | IC50 (ADRB2; antagonist mode, read-out: RC50 (IC50) ADRB2 Antagonist): > 10 µM | IC50 (INSR): > 10 µM | IC50 (MAOA): 8.88 µM | IC50 (PDE4D2): > 10 µM | bioavailability (in vivo): 69%
